Data reported in patent US6365178B1, “Method of making pressure sensitive adhesive matrix patches for transdermal drug delivery using hydrophilic salts of drugs and hydrophobic pressure sensitive adhesive dispersions” (priority 1996, dated 2002).

Legend:
[1] = Visual/microscopic observation of matrix films for drug crystals after preparation and on storage (physical stability); format: physicochemical; details: for Drug crystals in dried matrix: Example 5; for Drug crystals in adhesive matrix/laminate: Example 6, DURO-TAK 2852 with propylene glycol/isopropyl myristate, 10% ketorolac on free acid basis, visual and microscopic
Procedure: As used herein, “physical stability” of a drug in a matrix patch includes the lack of recrystallization of the drug in the dried adhesive layer of the patch.
Pressure sensitive adhesive matrix systems described herein were prepared as follows. First, the solids content of a water-based or solvent-based adhesive in liquid form was determined by placing a known weight of liquid in a weighed aluminum dish and evaporating the solvents overnight in a 70° C. convection oven. The content of solid adhesive in the liquid was calculated by dividing the adhesive solid weight after drying by the initial total liquid weight. In some cases, the polyisobutylene (PIB) adhesives were prepared from polyisobutylene solids. The solid PIB was first dissolved in heptane to achieve a final solid content of about 30% by weight, and then the exact solid content was determined as described above. Next, a weighed quantity of adhesive liquid was added to a glass bottle, and the solid adhesive weight was calculated from the known solid fraction of the given adhesive liquid. The drug substance (hydrophilic salt or free drug form) was weighed and added to the adhesive solution in a quantity necessary to achieve a selected dry matrix film composition. The liquid containing the adhesive polymer drug substance was then mixed overnight. […] After mixing, approximately 8 ml of the solution was dispensed on a silanized polyester release liner and film cast using a casting knife with a gap size appropriate to achieve a final dried thickness of approximately 0.05-0.1 mm. The cast was dried in a 70° C. convection oven for 15-30 minutes to yield a dried matrix onto which an 0.08 mm thick polyethylene backing film was laminated. These matrix systems were then used to conduct in vitro skin flux experiments as described below. […]
The systems manufactured with the salt and the water-based adhesive dispersions were stored at room temperature and examined using optical microscopy at 100× magnification for the presence of drug crystals.

[2] = Dissolution of drug substance in liquid adhesive or solvent during matrix preparation; format: physicochemical; details: for Dissolution in organic solvent system: TSR, equivalent to 1% (w/w) tromethamine salt; for Dissolution in enhancer-acrylic adhesive solution: Example 6, DURO-TAK 2852 with propylene glycol/isopropyl myristate, 10% ketorolac on free acid basis
Procedure: Pressure sensitive adhesive matrix systems described herein were prepared as follows. First, the solids content of a water-based or solvent-based adhesive in liquid form was determined by placing a known weight of liquid in a weighed aluminum dish and evaporating the solvents overnight in a 70° C. convection oven. The content of solid adhesive in the liquid was calculated by dividing the adhesive solid weight after drying by the initial total liquid weight. In some cases, the polyisobutylene (PIB) adhesives were prepared from polyisobutylene solids. […] Next, a weighed quantity of adhesive liquid was added to a glass bottle, and the solid adhesive weight was calculated from the known solid fraction of the given adhesive liquid. The drug substance (hydrophilic salt or free drug form) was weighed and added to the adhesive solution in a quantity necessary to achieve a selected dry matrix film composition. The liquid containing the adhesive polymer drug substance was then mixed overnight. […] The cast was dried in a 70° C. convection oven for 15-30 minutes to yield a dried matrix onto which an 0.08 mm thick polyethylene backing film was laminated. These matrix systems were then used to conduct in vitro skin flux experiments as described below.

[3] = In vitro skin flux, modified Franz non-jacketed diffusion cells; format: in vitro ADME, human; details: Example 6, DURO-TAK 2852 patch; for Average cumulative amount of ketorolac released after 24 hours / In vitro skin flux of ketorolac: 10% ketorolac on free acid basis, 8% enhancer (propylene glycol/isopropyl myristate); for In vitro skin flux of ketorolac: Mean±SD, n=2/10 skins/diffusion cells
Procedure: In vitro skin flux studies were conducted using human cadaver epidermal membrane in modified Franz non-jacketed diffusion cells. […] This method involves the exposure of the fullthickness skin to water at 60° C. for 60 seconds. After this period, the epidermal membrane was gently peeled from the dermis and stored in aluminum foil at −5 ° C. Prior to skin permeation experiments, the silanized release liner was removed from the adhesive matrix system, and the adhesive was affixed to the stratum corneum side of the thawed epidermal membrane, which was then cut to an appropriate size and placed between the two halves of the diffusion cell with the stratum corneum facing the donor compartment.
The receiver compartment was filled with water or an aqueous buffer appropriate to maintain sink conditions for the drug. All receiver media included 0.02% (w/w) sodium azide to inhibit bacterial growth. The diffusion cell was placed in a temperature controlled circulating water bath calibrated to maintain the surface temperature of the skin at 32° C. The receiver compartment was constantly stirred by a magnetic stir bar in the receiver compartment agitated by a magnetic stirring module placed under the water bath. At predetermined sampling intervals, the entire contents of the receiver compartment were collected for drug quantitation, and the receiver compartment was filled with fresh receiver solution, taking care to eliminate any air bubbles at the skin/solution interface.
The cumulative amount of drug permeated per unit area at any time t (Qt, μg/cm^2) was determined according to the following equation: [formula]
where Ct (μg/cm^3) is the concentration of the receiver compartment at sample time t (hours), V is the volume of the receiver compartment of the diffusion cell (6.3 cm^3), and A is the diffusional area of the cell (0.64 cm^2).

[4] = disclosed in U.S. Pat. No. 5,589,498 (Example 2); cited from earlier work
[5] = TSR, equivalent to 1% (w/w) tromethamine salt

O=C(c1ccccc1)c1ccc2n1CCC2C(=O)O (centres unmarked) [Ketorolac free acid, ketorolac]
Drug crystals in dried matrix [1, 5]: visually free of any crystals | Drug crystals in adhesive matrix/laminate [1]: visibly homogeneous and free from crystals | Dissolution in organic solvent system ([2]; Example 5): completely dissolved | Dissolution in enhancer-acrylic adhesive solution [2]: formed a homogeneous solution | Average cumulative amount of ketorolac released after 24 hours [3]: 583.3±94.6 μg/cm^2 | In vitro skin flux of ketorolac [3]: 25.4±4.2 μg/cm^2/h | 24 hour cumulative release [4]: 461.7±83.8 | Flux [4]: 21.6±3.6 μg/cm^2/h

O=C(c1ccccc1)c1ccc2n1CCC2C(=O)O (centres unmarked) [ketorolac tromethamine]
Drug crystals in dried matrix ([1]; NACOR 72-9965, 1% (w/w)): free of drug crystals | Drug crystals in dried matrix [1, 5]: contained crystallized drug | Drug crystals in adhesive matrix/laminate [1]: visibly cloudy and extensive crystals were visible | Dissolution in water/emulsion system ([2]; Example 5, NACOR 72-9965, 1% (w/w)): dissolved completely | Dissolution in organic solvent system ([2]; Example 5): did not completely dissolve | Dissolution in enhancer-acrylic adhesive solution [2]: does not dissolve | Average cumulative amount of ketorolac released after 24 hours [3]: 171.6±49.0 μg/cm^2 | In vitro skin flux of ketorolac [3]: 7.5±2.2 μg/cm^2/h | Ketorolac flux as % of the flux observed with the system prepared with the free acid ([3]; 14.9% ketorolac tromethamine): 30%
